The values that follow come from patent US10556866B2, “ROR gamma (RORγ) modulators” (LEAD PHARMA HOLDING B.V., priority 2015, dated 2020).

The experiment has as its target T1, RORγ (Homo sapiens, UniProt P51449).
T1 construct: expressed in transfected cells; host or cells: 293FT cells (Invitrogen), expression vector pFN26A (Promega)
T1 sequence (P51449 269-508 limits assumed): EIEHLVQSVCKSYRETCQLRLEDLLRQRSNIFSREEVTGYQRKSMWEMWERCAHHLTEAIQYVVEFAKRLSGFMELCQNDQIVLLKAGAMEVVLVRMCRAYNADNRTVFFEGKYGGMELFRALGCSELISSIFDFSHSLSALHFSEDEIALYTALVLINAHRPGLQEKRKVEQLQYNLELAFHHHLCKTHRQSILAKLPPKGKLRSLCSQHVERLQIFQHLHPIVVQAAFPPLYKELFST
The experiment in a line: RORγ GAL4 reporter gene assay (luciferase readout). To be noted: inhibition of RORγ (GAL4-RORγ-LBD) in 293FT cells, luciferase signal; read-out: mean pIC50 (converted). Type of experiment: cell-based. The procedure:
Example inhibitors 1-38 were tested for their ability to inhibit RORγ activity in a RORγ GAL4 reporter gene assay. The assay procedure and results are described below.
A GAL4 one-hybrid reporter system employing luciferase readout was established to determine inhibition of RORγ in 293FT cells. The RORγ ligand-binding domain (LBD) was fused to the yeast GAL4 DNA binding domain (DBD) and placed under the control of the human cytomegalovirus (CMV) immediate early promoter, using expression vector pFN26A (Promega) and standard recombinant DNA cloning methods. To serve as a control in the assay, a similar vector was generated in which the GAL4-DBD was fused to Herpes simplex virus protein 16 (VP16), a constitutive transcriptional activator.
To monitor the inhibitory effect of compounds on RORγ, a transcriptional reporter construct was used. The pGL4.35 vector (Promega) contains nine copies of the GAL4 Upstream Activator Sequence (UAS). This sequence drives the transcription of the luciferase reporter gene luc2P in response to binding of a fusion protein containing the GAL4 DNA binding domain, as for example expressed by the GAL4-RORγ-LBD and GAL4-VP16 expression vectors described above. To allow a GAL4 fusion protein to drive the expression of the luciferase reporter, the pGL4.35 expression vector and the appropriate GAL4 fusion protein expression vector were bulk transfected in the 293FT cells using standard transfection techniques.
The day after transfection, cells were plated into 96 well plates, test compound was added and the plates were incubated overnight. Subsequently, the firefly luciferase activity was quantified using luciferase detection reagent and luminescence readout.
293FT cells (Invitrogen) were transfected with a GAL4 fusion protein expression vector (as described above) and the transcriptional reporter construct (pGL4.35, Promega). 60 μL of TransIT-293 transfection reagent (Mirus Bio) was added drop wise to 1500 μl Opti-MEM I Reduced Serum Medium (Invitrogen) and incubated at RT (RT) for 5 to 20 minutes. 1500 μL of this reagent mixture was added to 5 μg of GAL4 fusion protein expression vector and 5 μg of the transcriptional reporter construct, and incubated at RT for 20 minutes.
To harvest 293FT cells from a T75 flask, first the culture medium was taken off the cells. Subsequently, the cells were washed with Phosphate Buffered Saline (PBS) (Lonza), after which the PBS was removed. To dissociate the cells, 1 ml of TrypLE Express (Invitrogen) was added to the flask, followed by incubation at RT until the cells visually started to detach. Cells were collected in 5 mL of assay medium (DMEM culture medium (Lonza), 10% dialyzed FBS (Invitrogen) and Pen/Strep (Lonza)) to achieve a single cell suspension. 10×10^6 cells were spun down and re-suspended in 10 mL of assay medium. Subsequently, the cell suspension was added to the transfection mix tube, and then transferred as a whole to a T75 flask (Greiner), followed by overnight (16-24 hours) incubation at 37° C. and 5% CO2.
For compound screening, the cells were harvested (as described above) and counted. 13×10^6 cells were spun down, the supernatant was aspirated and the cells were re-suspended in 17.3 mL of assay medium obtaining a cell suspension of 0.75×10^6 cells/mL. 80 μL of cell suspension (60,000 cells) was plated per well into a white, flat bottom, tissue culture treated, 96 well screening plates (Greiner).
Test compounds were diluted, starting from a 10 mM dimethylsulfoxide (DMSO) stock solution, to serial dilutions in DMSO at 500× the final test concentration. Subsequently, these solutions were diluted to 5× the final test concentration in two 10-fold-dilution steps in assay medium. The final DMSO concentration of the 5× test compound solution was 1%. 20 μL of the 5× test compound solution was added to each test well of the 96 well plate previously plated with 80 μl cell suspension, resulting in the final test concentration with 0.2% DMSO. […]
For orientation: A reporter such as luciferase makes a cellular process visible.

On to `Cc1cc(C(=O)NCc2ccc(S(=O)(=O)CC3CC3)cc2)ccc1C(O)(C(F)(F)F)C(F)(F)F` [Example 15, N-[[4-(cyclopropylmethylsulfonyl)phenyl]methyl]-3-methyl-4-[2,2,2-trifluoro-1-hydroxy-1-(trifluoromethyl)ethyl]benzamide], for which the IC50 is at most 100 nM.

Take `CCC(O)(c1ccc(C(=O)NCc2ccc(S(=O)(=O)CC3CC3)cc2)cc1)C(F)(F)F` (racemic) [(−)-1, (−)-N-[[4-(cyclopropylmethylsulfonyl)phenyl]methyl]-4-[1-hydroxy-1-(trifluoromethyl)propyl]benzamide]: the IC50 is at most 1000 nM. For `Cc1cc(C(O)(c2ccc(C(=O)NCc3ccc(S(=O)(=O)CC4CC4)cc3)cc2)C(C)C)no1` (stereo not shown) [Example 36, N-[[4-(cyclopropylmethylsulfonyl)phenyl]methyl]-4-[1-hydroxy-2-methyl-1-(5-methylisoxazol-3-yl)propyl]benzamide] the value was at most 100 nM; for `O=C(NCc1ccc(S(=O)(=O)NC2CC2)cc1)c1ccc(C(O)(C(F)(F)F)C(F)(F)F)cc1` [Example 21, N-[[4-(cyclopropylsulfamoyl)phenyl]methyl]-4-[2,2,2-trifluoro-1-hydroxy-1-(trifluoromethyl)ethyl]benzamide], at most 1000 nM; for `Cc1cc(C(O)(c2ccc(C(=O)NCc3ccc(S(=O)(=O)CC4CC4)cc3)cc2)C(C)(C)C)no1` (stereo not shown) [Example 38, N-[(4-(cyclopropylmethylsulfonyl)phenyl)methyl]-4-[1-hydroxy-2,2-dimethyl-1-(5-methylisoxazol-3-yl)propyl]benzamide], at most 100 nM. For `CCOC(c1ccc(C(=O)NCc2ccc(S(=O)(=O)CC3CC3)cc2)cc1)(C(F)(F)F)C(F)(F)F` [Example 23, N-[[4-(cyclopropylmethylsulfonyl)phenyl]methyl]-4-[1-ethoxy-2,2,2-trifluoro-1-(trifluoromethyl)ethyl]benzamide] the value was at most 100 nM; for `O=C(NCc1ccc(S(=O)(=O)CC2CC2)cc1)c1ccc(C(O)(C2CC2)C(F)(F)F)cc1` (stereo not shown) [Example 11, N-[[4-(cyclopropylmethylsulfonyl)phenyl]methyl]-4-(1-cyclopropyl-2,2,2-trifluoro-1-hydroxy-ethyl)benzamide], at most 100 nM.

As for `CCS(=O)(=O)c1ccc(CNC(=O)c2ccc(C(O)(C(F)(F)F)C(F)(F)F)cc2)cc1` [Example 19, N-[(4-ethylsulfonylphenyl)methyl]-4-[2,2,2-trifluoro-1-hydroxy-1-(trifluoromethyl)ethyl]benzamide], the IC50 was below 10000 nM. For `CCCCC(O)(c1ccc(C(=O)NCc2ccc(S(=O)(=O)CC3CC3)cc2)cc1)C(F)(F)F` (stereo not shown) [Example 7, N-[[4-(cyclopropylmethylsulfonyl)phenyl]methyl]-4-[1-hydroxy-1-(trifluoromethyl)pentyl]benzamide] the value was at most 100 nM. For `CCC(O)(c1ccc(C(=O)NCc2ccc(S(=O)(=O)CC3CC3)cc2)cc1)C(F)(F)F` (racemic) [Example 1, N-[[4-(cyclopropylmethylsulfonyl)phenyl]methyl]-4-[1-hydroxy-1-(trifluoromethyl)propyl]benzamide] the value was at most 100 nM; for `Cc1cc(C(O)(c2ccc(C(=O)NCc3ccc(S(=O)(=O)CC4CC4)cc3)cc2)C2CC2)no1` (stereo not shown) [Example 37, 4-[cyclopropyl-hydroxy-(5-methylisoxazol-3-yl)methyl]-N-[[4-(cyclopropylmethylsulfonyl)phenyl]methyl]benzamide], at most 1000 nM; for `O=C(NCc1ccc(S(=O)(=O)CC2CC2)cc1)c1ccc(C(OCc2ccccc2)(C(F)(F)F)C(F)(F)F)cc1` [Example 27, 4-[1-benzyloxy-2,2,2-trifluoro-1-(trifluoromethyl)ethyl]-N-[[4-(cyclopropylmethylsulfonyl)phenyl]methyl]benzamide], at most 1000 nM. For `CC(C)(O)c1ccc(C(=O)NCc2ccc(S(=O)(=O)CC3CC3)cc2)cc1` [Example 3, N-[[4-(cyclopropylmethylsulfonyl)phenyl]methyl]-4-(1-hydroxy-1-methyl-ethyl)benzamide], the IC50 is above 10000 nM. Turning to `C[C@H](NC(=O)c1ccc(C(O)(C(F)(F)F)C(F)(F)F)cc1)c1ccc(S(=O)(=O)CC2CC2)cc1` [Example 35, N-[(1S)-1-[4-(cyclopropylmethylsulfonyl)phenyl]ethyl]-4-[2,2,2-trifluoro-1-hydroxy-1-(trifluoromethyl)ethyl]benzamide], the IC50 is at most 1000 nM. For `CCS(=O)(=O)c1ccc(CNC(=O)c2ccc(C(O)(CC(C)(C)C)C(F)(F)F)cc2)cc1` (stereo not shown) [Example 18, N-[(4-ethylsulfonylphenyl)methyl]-4-[1-hydroxy-3,3-dimethyl-1-(trifluoromethyl)butyl]benzamide] the value was at most 1000 nM; for `COC(CC(C)(C)C)(c1ccc(C(=O)NCc2ccc(S(=O)(=O)CC3CC3)cc2)cc1)C(F)(F)F` (stereo not shown) [Example 33, N-[[4-(cyclopropylmethylsulfonyl)phenyl]methyl]-4-[1-methoxy-3,3-dimethyl-1-(trifluoromethyl)butyl]benzamide], at most 100 nM. For the compound `CCCCOC(c1ccc(C(=O)NCc2ccc(S(=O)(=O)CC3CC3)cc2)cc1)(C(F)(F)F)C(F)(F)F` [Example 25, 4-[1-butoxy-2,2,2-trifluoro-1-(trifluoromethyl)ethyl]-N-[[4-(cyclopropylmethylsulfonyl)phenyl]methyl]benzamide], the IC50 was at most 100 nM.

Regarding `CC(C)C(O)(c1ccc(C(=O)NCc2ccc(S(=O)(=O)CC3CC3)cc2)cc1)C(F)(F)F` (stereo not shown) [Example 10, N-[[4-(cyclopropylmethylsulfonyl)phenyl]methyl]-4-[1-hydroxy-2-methyl-1-(trifluoromethyl)propyl]benzamide], the IC50 was at most 100 nM.

For `CC(C)CC(O)(c1ccc(C(=O)NCc2ccc(S(=O)(=O)CC3CC3)cc2)cc1)C(F)(F)F` (stereo not shown) [Example 8, N-[[4-(cyclopropylmethylsulfonyl)phenyl]methyl]-4-[1-hydroxy-3-methyl-1-(trifluoromethyl)butyl]benzamide], the IC50 is at most 100 nM. For `CCOC(c1ccc(C(=O)NCc2ccc(S(=O)(=O)CC3CC3)cc2C)cc1)(C(F)(F)F)C(F)(F)F` [Example 29, N-[[4-(cyclopropylmethylsulfonyl)-2-methyl-phenyl]methyl]-4-[1-ethoxy-2,2,2-trifluoro-1-(trifluoromethyl)ethyl]benzamide] the value was at most 100 nM. For `CCOC(c1ccc(C(=O)NCc2ccc(S(=O)(=O)NC3CC3)cc2)cc1)(C(F)(F)F)C(F)(F)F` [Example 31, N-[[4-(cyclopropylsulfamoyl)phenyl]methyl]-4-[1-ethoxy-2,2,2-trifluoro-1-(trifluoromethyl)ethyl]benzamide] the value was at most 1000 nM; for `C[C@@H](NC(=O)c1ccc(C(O)(C(F)(F)F)C(F)(F)F)cc1)c1ccc(S(=O)(=O)CC2CC2)cc1` [Example 34, N-[(1R)-1-[4-(cyclopropylmethylsulfonyl)phenyl]ethyl]-4-[2,2,2-trifluoro-1-hydroxy-1-(trifluoromethyl)ethyl]benzamide], below 10000 nM.
